The source of these data is patent publication US7851471B2, “Compounds I” (AstraZeneca AB (PUBL), priority 2007, dated 2010).

Assay [1] relates to JEG-3 cells (choriocarcinoma cell line). The settings on record: Biol. Reprod. (2007) 76: 203-10; cited from earlier work.
Assay [2] has the same test system. Nature of the assay: Leptin assay in non-recombinant system: [3H]-thymidine incorporation / proliferation of JEG-3 cells. The assay is classed as cell-based. The procedure:
In JEG-3 cells (choriocarcinoma cell line) leptin is able to stimulate proliferation up to 3 fold (Biol. Reprod. (2007) 76: 203-10). […] The radioactivity incorporated by the cells is an index of their proliferative activity and is measured in counts per minute (CPM) with a liquid scintillation beta counter.
This finding can be applied to test whether a compound is able to either reproduce the effect of leptin on cell proliferation (leptin receptor agonist mimetic) (i.e., a given compound will cause an increase in incorporated [^3H]-Thymidine by the cells) or to inhibit the effect of leptin (antagonistic effect) by preventing the leptin-mediated increase in [H]-thymidine incorporation.
For orientation: Uptake of a labelled nucleoside into DNA is a usual measure of proliferation.

“Leptin: a hormone synthesized in fat cells that is believed to act in the hypothalamus to reduce food intake and body weight”: the stimulation of proliferation result in assay [1] is reported as “up to 3 fold”. Moreover, the “concentration giving maximal effect on [3H]-thymidine incorporation” value in assay [2] (FIG. 5) is 100 nM. In addition, the EC50 in assay [2] (FIG. 5, read-out: concentration-dependent increase in [3H]-thymidine incorporation, EC50) turned out to be 2.1 nM.
